{
  "source": "paper PMC9981504",
  "about": "(Journal of Biological Inorganic Chemistry, 2023)",
  "target": "T1, soybean lipoxygenase (Glycine max, UniProt P08170)",
  "T1 construct": "gene LOX1.1",
  "T1 sequence (P08170 whole entry)": "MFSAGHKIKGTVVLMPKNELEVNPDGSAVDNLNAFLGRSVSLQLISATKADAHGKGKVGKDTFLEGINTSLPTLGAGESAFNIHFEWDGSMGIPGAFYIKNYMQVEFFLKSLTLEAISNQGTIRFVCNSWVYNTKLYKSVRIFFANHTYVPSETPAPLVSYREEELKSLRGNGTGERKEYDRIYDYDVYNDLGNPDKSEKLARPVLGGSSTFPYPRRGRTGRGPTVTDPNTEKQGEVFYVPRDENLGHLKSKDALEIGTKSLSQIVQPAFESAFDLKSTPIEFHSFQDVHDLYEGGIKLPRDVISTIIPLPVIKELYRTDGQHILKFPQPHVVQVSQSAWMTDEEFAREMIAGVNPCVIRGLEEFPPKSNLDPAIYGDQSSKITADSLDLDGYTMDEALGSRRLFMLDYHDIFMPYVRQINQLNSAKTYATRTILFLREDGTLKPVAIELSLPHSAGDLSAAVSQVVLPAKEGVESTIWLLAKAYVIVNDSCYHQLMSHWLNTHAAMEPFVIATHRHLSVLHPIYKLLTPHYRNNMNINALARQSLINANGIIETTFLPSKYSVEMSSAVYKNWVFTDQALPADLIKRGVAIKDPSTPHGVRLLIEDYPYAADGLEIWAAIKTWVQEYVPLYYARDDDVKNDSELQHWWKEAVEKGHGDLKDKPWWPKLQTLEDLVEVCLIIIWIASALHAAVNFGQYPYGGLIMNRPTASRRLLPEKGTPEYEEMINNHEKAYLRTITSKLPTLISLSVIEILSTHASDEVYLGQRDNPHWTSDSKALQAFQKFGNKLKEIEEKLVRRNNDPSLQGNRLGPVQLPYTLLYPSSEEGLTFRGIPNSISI",
  "assay": "UV enzyme assay at […] nm, % inhibition at […]",
  "type": "biochemical",
  "conditions": "read-out: LOX % 100 μM or IC50",
  "data": [
    {"molecule": "O=c1c(O)c(-c2ccc(O)cc2)oc2cc(O)ccc12", "note": "[resokaempferol, 3,7,4΄-trihydroxyflavone]", "values": [
      {"measurement": "inhibition at 100 µM", "value": 90, "unit": "%"}
    ]}
  ]
}
